According to the NIST ThermoML archive (doi:10.1016/j.jct.2015.07.028):
Numbers after ± are expanded uncertainties.

Experiment: molar heat capacity at saturation pressure
Details: Small (less than 1 g) adiabatic calorimetry

C=CC(C)(C)O [2-methyl-3-buten-2-ol]
molar heat capacity [J/K/mol]
Details	Crystal 1	Crystal 2
5 K	–	0.3244 ± 0.021
5.363 K	–	0.4026 ± 0.021
5.571 K	–	0.4523 ± 0.022
5.832 K	–	0.524 ± 0.023
6.097 K	–	0.6053 ± 0.025
6.395 K	–	0.7063 ± 0.027
6.727 K	–	0.8287 ± 0.03
7.065 K	–	0.9656 ± 0.033
7.409 K	–	1.117 ± 0.036
7.759 K	–	1.284 ± 0.039
8.114 K	–	1.466 ± 0.043
8.474 K	–	1.662 ± 0.048
8.837 K	–	1.874 ± 0.052
9.202 K	–	2.099 ± 0.057
9.571 K	–	2.338 ± 0.062
9.942 K	–	2.587 ± 0.068
10 K	–	2.631 ± 0.051
10.42 K	–	2.931 ± 0.056
11.01 K	–	3.375 ± 0.062
11.6 K	–	3.843 ± 0.068
12.19 K	–	4.339 ± 0.075
12.79 K	–	4.858 ± 0.082
13.39 K	–	5.395 ± 0.089
14 K	–	5.954 ± 0.096
14.61 K	–	6.523 ± 0.1
15 K	–	6.921 ± 0.11
15.22 K	–	7.118 ± 0.11
15.95 K	–	7.872 ± 0.12
16.79 K	–	8.742 ± 0.13
17.63 K	–	9.598 ± 0.14
18.48 K	–	10.46 ± 0.15
19.32 K	–	11.32 ± 0.16
20 K	–	12.04 ± 0.13
20.18 K	–	12.2 ± 0.13
21.37 K	–	13.46 ± 0.14
22.9 K	–	15.06 ± 0.14
24.44 K	–	16.66 ± 0.15
25 K	–	17.22 ± 0.15
25.98 K	–	18.24 ± 0.16
27.53 K	–	19.75 ± 0.16
28.81 K	–	20.98 ± 0.16
30 K	–	22.12 ± 0.17
30.24 K	–	22.33 ± 0.17
31.96 K	–	23.92 ± 0.18
33.85 K	–	25.59 ± 0.19
35 K	–	26.55 ± 0.2
35.75 K	–	27.18 ± 0.2
37.65 K	–	28.7 ± 0.21
39.55 K	–	30.18 ± 0.21
40 K	–	30.53 ± 0.22
41.55 K	–	31.7 ± 0.22
43.65 K	–	33.27 ± 0.23
45 K	–	34.27 ± 0.24
45.75 K	–	34.79 ± 0.24
47.85 K	–	36.31 ± 0.25
49.95 K	–	37.78 ± 0.25
50 K	–	37.8 ± 0.25
52.05 K	–	39.21 ± 0.26
54.16 K	–	40.59 ± 0.27
56.27 K	–	41.96 ± 0.28
58.39 K	–	43.29 ± 0.28
60 K	–	44.33 ± 0.29
60.51 K	–	44.64 ± 0.29
62.64 K	–	45.97 ± 0.3
64.76 K	–	47.34 ± 0.3
66.88 K	–	48.71 ± 0.31
69.01 K	–	50.1 ± 0.32
70 K	–	50.7 ± 0.32
71.24 K	–	51.62 ± 0.33
73.58 K	–	53.27 ± 0.34
75.92 K	–	55.14 ± 0.35
77.87 K	–	57.21 ± 0.36
78.23 K	–	57.58 ± 0.36
78.27 K	–	57.34 ± 0.36
78.34 K	–	57.57 ± 0.36
79.01 K	–	58.22 ± 0.36
79.1 K	–	58.39 ± 0.36
79.23 K	–	58.44 ± 0.36
79.68 K	–	58.95 ± 0.37
79.83 K	–	59.11 ± 0.37
80 K	–	57.08 ± 0.36
80.23 K	–	59.74 ± 0.37
80.33 K	–	59.84 ± 0.37
80.34 K	–	59.8 ± 0.37
80.38 K	–	59.82 ± 0.37
80.93 K	–	60.61 ± 0.37
81.01 K	–	60.76 ± 0.38
81.36 K	–	61.46 ± 0.38
81.48 K	–	61.53 ± 0.38
81.67 K	–	61.8 ± 0.38
82.03 K	–	62.46 ± 0.38
82.27 K	–	62.81 ± 0.39
82.34 K	–	62.96 ± 0.39
82.49 K	–	63.36 ± 0.39
82.57 K	–	63.46 ± 0.39
83 K	–	64.02 ± 0.39
83.12 K	–	64.33 ± 0.39
83.61 K	–	65.12 ± 0.4
83.66 K	–	65.08 ± 0.4
84.19 K	–	66.18 ± 0.4
84.2 K	–	65.98 ± 0.4
84.31 K	–	66.19 ± 0.4
84.72 K	–	67.2 ± 0.41
84.74 K	–	67.26 ± 0.41
84.97 K	–	67.69 ± 0.41
85.28 K	–	68.9 ± 0.42
85.62 K	–	69.64 ± 0.42
85.81 K	–	71.17 ± 0.44
85.82 K	–	71.29 ± 0.44
86.07 K	–	73.72 ± 0.45
86.26 K	–	73.39 ± 0.44
86.33 K	–	74.69 ± 0.45
88.1 K	61.32 ± 0.32	62.25 ± 0.38
89.48 K	65.12 ± 0.4	–
89.49 K	64.37 ± 0.39	–
89.61 K	64.85 ± 0.4	–
90 K	62.35 ± 0.35	–
90.04 K	63.82 ± 0.41	–
90.18 K	63.5 ± 0.41	–
90.62 K	63.44 ± 0.41	–
90.78 K	63.53 ± 0.41	–
90.87 K	63.45 ± 0.41	–
91.19 K	63.49 ± 0.41	–
91.32 K	63.69 ± 0.41	–
91.57 K	63.46 ± 0.41	–
91.77 K	63.59 ± 0.41	–
91.97 K	63.75 ± 0.41	–
92.27 K	63.73 ± 0.41	–
92.34 K	63.78 ± 0.41	–
92.92 K	64.01 ± 0.41	–
92.97 K	64.05 ± 0.41	–
93.15 K	64.24 ± 0.41	–
93.36 K	64.34 ± 0.41	–
93.5 K	64.26 ± 0.41	–
93.67 K	64.43 ± 0.41	–
94.08 K	64.54 ± 0.41	–
94.35 K	64.76 ± 0.42	–
94.37 K	64.82 ± 0.42	–
94.67 K	64.85 ± 0.42	–
95.08 K	65.12 ± 0.42	–
95.25 K	65.18 ± 0.42	–
95.42 K	65.33 ± 0.42	–
95.55 K	65.34 ± 0.42	–
96.34 K	65.8 ± 0.42	–
96.44 K	65.84 ± 0.42	–
96.75 K	65.99 ± 0.42	–
97.48 K	66.4 ± 0.42	–
97.95 K	66.62 ± 0.42	–
98.15 K	66.74 ± 0.42	–
98.26 K	66.77 ± 0.42	–
99.15 K	67.27 ± 0.43	–
99.55 K	67.5 ± 0.43	–
99.97 K	67.73 ± 0.43	–
100 K	67.72 ± 0.43	–
101.8 K	68.7 ± 0.43	–
101.81 K	68.72 ± 0.43	–
103.63 K	69.68 ± 0.44	–
104.26 K	70.06 ± 0.44	–
105.46 K	70.68 ± 0.44	–
106.72 K	71.41 ± 0.45	–
107.3 K	71.7 ± 0.45	–
109.14 K	72.73 ± 0.45	–
109.18 K	72.79 ± 0.45	–
110 K	73.25 ± 0.45	–
110.98 K	73.78 ± 0.46	–
111.65 K	74.18 ± 0.46	–
112.82 K	74.82 ± 0.46	–
114.12 K	75.6 ± 0.47	–
114.67 K	75.87 ± 0.47	–
116.51 K	76.95 ± 0.47	–
116.6 K	77.03 ± 0.47	–
118.36 K	78.04 ± 0.48	–
119.07 K	78.49 ± 0.48	–
120 K	78.98 ± 0.49	–
120.2 K	79.15 ± 0.48	–
121.55 K	79.98 ± 0.49	–
122.05 K	80.25 ± 0.49	–
123.9 K	81.37 ± 0.49	–
124.02 K	81.49 ± 0.49	–
125.74 K	82.53 ± 0.5	–
126.49 K	83.07 ± 0.5	–
127.59 K	83.73 ± 0.51	–
128.96 K	84.71 ± 0.51	–
129.43 K	85.04 ± 0.51	–
130 K	85.52 ± 0.51	–
131.26 K	86.38 ± 0.52	–
131.43 K	86.54 ± 0.52	–
133.1 K	87.73 ± 0.52	–
133.88 K	88.39 ± 0.53	–
134.93 K	89.13 ± 0.53	–
136.33 K	90.2 ± 0.54	–
136.76 K	90.46 ± 0.54	–
138.58 K	91.75 ± 0.54	–
138.78 K	91.98 ± 0.54	–
140 K	92.84 ± 0.55	–
140.4 K	93.1 ± 0.55	–
141.22 K	93.76 ± 0.55	–
142.22 K	94.49 ± 0.56	–
143.66 K	95.62 ± 0.56	–
144.04 K	95.9 ± 0.56	–
145.85 K	97.31 ± 0.57	–
146.09 K	97.56 ± 0.57	–
147.65 K	98.82 ± 0.58	–
148.5 K	99.58 ± 0.58	–
149.45 K	100.3 ± 0.6	–
150 K	100.8 ± 0.6	–
150.92 K	101.6 ± 0.6	–
151.37 K	102 ± 0.6	–
153.32 K	103.8 ± 0.6	–
153.4 K	103.9 ± 0.6	–
155.42 K	105.7 ± 0.6	–
155.71 K	106 ± 0.6	–
157.44 K	107.7 ± 0.6	–
158.09 K	108.4 ± 0.6	–
159.45 K	109.7 ± 0.6	–
160 K	110.3 ± 0.6	–
160.45 K	110.8 ± 0.6	–
161.45 K	111.8 ± 0.6	–
162.8 K	113.2 ± 0.6	–
163.44 K	113.9 ± 0.7	–
165.14 K	115.7 ± 0.7	–
165.42 K	116 ± 0.7	–
167.39 K	118.2 ± 0.7	–
167.47 K	118.3 ± 0.7	–
